Test results taken from article PMC5777239 (Science signaling, 2017).
Each block holds one molecule with its values, some of them ahead of it.

Assays:
[1] = test system: RXRA (Gal4-RXRA reporter); assay: Gal4-RXRA UAS-GFP Kit+ reporter cells treated with plasma from treated mice; type: in vivo, mouse; conditions: Kit+ cells transduced with Gal4-RXRA, plasma from mice exposed to the agent
[2] = target: T1, RXR alpha LBD-GST (Homo sapiens, UniProt P19793); assay: LanthaScreen TR-FRET Retinoic X Receptor alpha Coactivator assay; type: biochemical
T1 sequence (P19793 227-458 limits assumed): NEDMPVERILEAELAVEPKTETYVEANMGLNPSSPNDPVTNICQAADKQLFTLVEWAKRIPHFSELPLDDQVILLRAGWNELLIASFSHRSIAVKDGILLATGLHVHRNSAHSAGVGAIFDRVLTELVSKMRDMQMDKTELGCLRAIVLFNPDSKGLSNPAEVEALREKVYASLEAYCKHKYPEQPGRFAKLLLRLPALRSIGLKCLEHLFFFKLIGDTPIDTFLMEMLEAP

[3] = target: T2, RXRA (Homo sapiens, UniProt P19793); assay: DR1x3-TK-Luc luciferase reporter in 293T cells with full-length RXRA; type: cell-based; conditions: 40 hour incubation
T2 sequence (P19793 1-462): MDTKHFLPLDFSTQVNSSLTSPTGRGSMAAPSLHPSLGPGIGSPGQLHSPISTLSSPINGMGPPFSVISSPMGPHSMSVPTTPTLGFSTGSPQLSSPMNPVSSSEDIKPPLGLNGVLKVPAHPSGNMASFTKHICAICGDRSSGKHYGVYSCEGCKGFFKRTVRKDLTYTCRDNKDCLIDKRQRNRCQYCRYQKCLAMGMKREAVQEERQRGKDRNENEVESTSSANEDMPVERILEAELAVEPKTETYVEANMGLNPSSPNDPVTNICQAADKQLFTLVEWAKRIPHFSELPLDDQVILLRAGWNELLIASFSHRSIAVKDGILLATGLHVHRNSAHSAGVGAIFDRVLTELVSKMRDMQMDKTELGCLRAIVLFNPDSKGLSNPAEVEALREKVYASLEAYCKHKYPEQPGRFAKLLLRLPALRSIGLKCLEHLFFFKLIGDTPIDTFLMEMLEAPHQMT

[4] = target: T3, Flag-Gal4 DBD-RXRA LBD (Homo sapiens, UniProt P19793); type: binding; conditions: 293T-FXP cells treated with serum up to 24 hours
T3 sequence (P19793 227-458 limits assumed): T1 sequence (P19793 227-458 limits assumed)

[5] = target: T4, RXRA (Gal4-DBD fused to RXRA-LBD) (Homo sapiens, UniProt P19793); type: cell-based, mouse; conditions: primary UAS-GFP Kit+ cells transduced with Gal4-RXRA; synthesized fatty acids
T4 sequence (P19793 227-458 limits assumed): T1 sequence (P19793 227-458 limits assumed)

[6] = target: T2, RXRA; conditions: cited from earlier work
[7] = target: RXR alpha LBD-GST; assay: FRET or BRET
[8] = test system: RXRA (Gal4-RXRA reporter); type: in vivo, mouse; conditions: for proportion of GFP+mCherry+ cells in total bone marrow cells / single cell abundance of GFP, mean fluorescence intensity (MFI): Gal4-RXRA transplanted mice; for proportion of GFP+mCherry+ cells in total bone marrow cells: compared to mice without treatment; for single cell abundance of GFP, mean fluorescence intensity (MFI): whole bone marrow cells
[9] = test system: mouse hematopoietic cells; type: in vivo; conditions: after PHZ treatment, mass spectrometry

Molecule: O=c1[nH]cc(F)c(=O)[nH]1 [5-FU, 5-fluoruracil]
- UAS-GFP reporter output with plasma from treated mice [1]: did not observe an increase

- activation of DR1-luciferase reporter [3]: could activate a DR1-luciferase reporter
- binding to Flag-Gal4-RXRA in pull-down (MS) [4]: bound to RXRA in a time-dependent manner
Molecule: CC/C=C\C/C=C\C/C=C\C/C=C\C/C=C\CCCCCCCC(=O)O [C24:5, (9Z, 12Z, 15Z, 18Z, 21Z)-tetracosa-9,12,15,18,21-pentaenoic acid]
- binding of PGC1 and D22 co-activator peptides (TR-FRET) [2]: induced dose-dependent binding of both PGC1 and D22 peptides

- activation of the GFP reporter [5]: did not activate the GFP reporter
- binding to Flag-Gal4-RXRA in pull-down (MS) [4]: bound to RXRA in a time-dependent manner
Molecule: CC/C=C\C/C=C\C/C=C\C/C=C\C/C=C\CCCCCCCC(=O)O [C24:4, (9Z, 12Z, 15Z, 18Z, 21Z)-tetracosa-9,12,15,18,21-tetraenoic acid]
- binding of PGC1 and D22 co-activator peptides (TR-FRET) [2]: did not lead to binding of either PGC1 or D22

Molecule: CC/C=C\C/C=C\C/C=C\C/C=C\C/C=C\CCCCCC(=O)O [DPA, docosapentaenoic acid]
- activation of RXRA in vitro (luciferase reporter) [6]: activate RXRA in vitro

- binding to Flag-Gal4-RXRA in pull-down (MS) [4]: bound to RXRA in a time-dependent manner
Molecule: CC/C=C\C/C=C\C/C=C\C/C=C\C/C=C\C/C=C\CCC(=O)O [DHA, docosahexaenoic acid]
- activation of RXRA in vitro (luciferase reporter) [6]: activate RXRA in vitro

- EC50 of the ligand C24:5 for induced binding of the peptide [7]: 94 nM
- EC50 of the ligand DHA for induced binding of the peptide [7]: 86 nM
Molecule: Fluorescein-PGC1α peptide

Molecule: CCCCC/C=C\C/C=C\C/C=C\C/C=C\CCCC(=O)O [AA, arachidonic acid]
- activation of RXRA in vitro (luciferase reporter) [6]: activate RXRA in vitro

Molecule: NNc1ccccc1 [PHZ, phenylhydrazine]
- proportion of GFP+mCherry+ cells in total bone marrow cells [8]: increase
- single cell abundance of GFP, mean fluorescence intensity (MFI) [8]: increased
- WBC peak following treatment ([8]; granulopoiesis following PHZ treatment): 18-22,000 /μl
- UAS-GFP reporter output with plasma from treated mice [1]: increased
- concentrations of fatty acids C24:4 and C24:5 in bone marrow cells [9]: increased two-fold
- concentrations of fatty acids C24:4 and C24:5 in peripheral blood cells [9]: increased three-fold

B1: granulocyte colony stimulating factor (protein, UniProt P09919 31-207, looked up)
Granulocyte …: TPLGPASSLPQSFLLKCLEQVRKIQGDGAALQEKLVSECATYKLCHPEELVLLGHSLGIPWAPLSSCPSQALQLAGCLSQLHSGLFLYQGLLQALEGISPELGPTLDTLQLDVADFATTIWQQMEELGMAPALQPTQGAMPAFASAFQRRAGGVLVASHLQSFLEVSYRVLRHLAQP
- proportion of GFP+mCherry+ cells in total bone marrow cells [8]: increase
- single cell abundance of GFP, mean fluorescence intensity (MFI) [8]: increased
- UAS-GFP reporter output with plasma from treated mice [1]: increased
